Measured values from patent publication US20040146520A1, “Materials and methods relating to immune suppression” (priority 2001, published 2004).
Where a SMILES comes first, the peptide text is derived from it. The star is where a group is joined. Cbz = O=C(OCc1ccccc1)*; CH2F = FC*

Legend:
[1] = molecular target: CD8-associated p56lck (Homo sapiens, UniProt P06239); conditions: cited from earlier work
[2] = tested on: Flu-specific (MP58-66) CTL; assay: CTL apoptosis induced by peptide/MHC multimeric beads; assay type: cell-based, human; conditions: IL-2 20 U/ml, anti-CD28 1 μg/ml, z-VAD 10 μM; 12 hrs
[3] = tested on: A2+ B cell targets; assay: Gag-specific CTL assay, apoptosis of peptide-pulsed targets (Annexin-V); conditions: peptide-pulsed BCL, 12-hour incubation, FIG. 1b

Sequence of CD8-associated p56lck (P06239 whole entry): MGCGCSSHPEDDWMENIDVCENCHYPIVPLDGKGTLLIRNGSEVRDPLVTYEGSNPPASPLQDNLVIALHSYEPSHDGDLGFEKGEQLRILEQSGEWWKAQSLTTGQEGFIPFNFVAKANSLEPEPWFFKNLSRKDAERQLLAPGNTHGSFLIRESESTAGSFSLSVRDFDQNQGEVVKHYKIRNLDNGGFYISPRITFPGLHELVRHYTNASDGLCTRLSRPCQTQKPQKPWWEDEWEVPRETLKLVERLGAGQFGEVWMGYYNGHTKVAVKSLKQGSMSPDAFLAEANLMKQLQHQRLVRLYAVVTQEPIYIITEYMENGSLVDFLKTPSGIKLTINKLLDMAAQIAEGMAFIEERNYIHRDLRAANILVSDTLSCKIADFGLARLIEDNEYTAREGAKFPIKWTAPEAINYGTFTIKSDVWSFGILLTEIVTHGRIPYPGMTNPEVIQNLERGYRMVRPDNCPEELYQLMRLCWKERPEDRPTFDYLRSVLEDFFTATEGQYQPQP

Question: For `CO[C@H]1[C@@H](OC)C[C@H](C)[C@@H](OC)C2=CC(=O)C=C(NC(=O)/C(C)=C/C=C\[C@H](OC)[C@@H](OC(N)=O)/C(C)=C/[C@@H]1C)C2=O` [herbimycin A], which “effect on FasL-mediated cytotoxicity” value [1] is on record?
Answer: little effect

Question: For `CC(NC(=O)C(NC(=O)OCc1ccccc1)C(C)C)C(=O)NC(CC(=O)O)C(=O)CF` (stereo not drawn) [z-VAD] (Cbz-Val-Ala-Asp-CH2F; configuration not given here), which “effect of added reagent on multimer-induced CTL death” value [2] is on record?
Answer: blocked

Question: For SLFNTVATL [Mutant 3F], which “target cell death, gag variant peptides” value [3] is on record?
Answer: sensitising
